Assay results taken from paper PMC6613030, “LC-ESI-MS/MS Phenolic Profile of Volutaria lippii (L.) Cass. Extracts and Evaluation of Their In Vitro Antioxidant, Antiacetylcholinesterase, Antidiabetic, and Antibacterial Activities” (Evidence-based Complementary and Alternative Medicine : eCAM, 2019).
Marks after values point to notes of the source that are not given here.

Assays:
pancreatic α-amylase = molecular target: T1, pancreatic α-amylase (Sus scrofa, UniProt P00690); test: biochemical
T1 construct: purchased Merck (Sigma-Aldrich, Steinheim, Germany)
T1 sequence (P00690 16-511): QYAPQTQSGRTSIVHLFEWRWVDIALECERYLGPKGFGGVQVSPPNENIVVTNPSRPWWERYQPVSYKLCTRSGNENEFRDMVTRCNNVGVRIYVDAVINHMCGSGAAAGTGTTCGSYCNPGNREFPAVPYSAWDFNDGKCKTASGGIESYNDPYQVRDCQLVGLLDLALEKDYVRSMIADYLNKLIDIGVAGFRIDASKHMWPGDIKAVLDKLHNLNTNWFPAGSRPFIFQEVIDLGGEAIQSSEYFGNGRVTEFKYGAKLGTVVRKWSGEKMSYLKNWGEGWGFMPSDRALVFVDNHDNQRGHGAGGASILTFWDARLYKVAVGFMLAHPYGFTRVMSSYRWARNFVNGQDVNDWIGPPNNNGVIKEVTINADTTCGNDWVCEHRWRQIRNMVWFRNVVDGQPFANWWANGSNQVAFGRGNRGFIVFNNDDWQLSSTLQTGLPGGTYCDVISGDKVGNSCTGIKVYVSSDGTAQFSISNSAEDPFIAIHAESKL
Method: The in vitroα-amylase inhibitory assay of all fractions was performed by the previous method described by Gella et al.. […] Percentage inhibition (PI) was calculated by the following expression:(3) PI%=Acontrol – Asample/Acontrol×100 where Acontrol is the absorbance of the control and Asample is the absorbance of the test sample.

[1] = DPPH radical scavenging assay; conditions: 30 min in the dark, absorbance at 517 nm
Method: The DPPH radical scavenging activity of different fractions of V. lippii was evaluated following the procedure described by Les et al. [14]. […] The final concentrations in the reaction's mixture were 0.005-0.5 mg/mL. Each mixture was shaken and allowed in the dark for 30 min at room temperature. The blank was prepared as above without any extract and the BHT was used as positive control. […] The PI was calculated using the following equation:(1) PI%=Ablank – Asample/Ablank×100 where Ablank is the absorbance of the blank and Asample is the absorbance of the test sample.
The calibration curve for scavenging percentage against extract concentration was plotted and the IC50 (half maximal inhibitory concentration) value of each sample was established.

[2] = Reducing power assay (FRAP); conditions: effective concentration at which the absorbance is 0.5 (700 nm)
Method: The reducing power of all fractions was evaluated using the procedure of Yildirim et al., and BHT was used as positive control. A 1 mL of different concentrations of each V. lippii sample (5, 10, 25, 50,100 μg/mL) was mixed with 2.5 mL of 1% potassium ferricyanide and 2.5 mL of sodium phosphate buffer (0.2 M, pH= 6.6). The mixture was incubated for 20 min at 50°C and then 2.5 mL of 10% trichloroacetic acid were added and centrifuged for 10 minutes. 2.5 mL of the supernatant were mixed with 0.5 mL of ferric chloride solution (0.1%) and 2.5 mL of distilled water. The absorbance of the mixture was measured at 700 nm.

Bacillus thuringiensis = test: Antibacterial activity, agar disc diffusion; type: cell-based; conditions: 10 μg / disc, positive control
Method: (§1) The V. lippii fractions were assessed against a five bacterial strains: Gram-negative: Salmonella enterica (CIP 8039) and Escherichia coli (ATCC 8739), Gram-positive: Staphylococcus aureus (ATCC 6538), Bacillus thuringiensis, and Enterococcus faecalis (ATCC 29212). Bacteria not obtained from an ATCC collection were acquired from the Microbiology Department, Faculty of Science, University of Sfax (Tunisia). Bacterial strains were cultured in Mueller-Hinton agar (MHA) for 24 h at 37°C.
(§2) The disc diffusion method was employed for the determination of antibacterial activities of V. lippii fractions according to the method described by Berghe and Vlietinck. Antibacterial activities were evaluated by measuring the diameters of the inhibition zones against the test organisms and compared to penicillin (10 μg per disk) as the positive control. Tests were carried out in triplicate.

[3] = test system: Enterococcus faecalis (ATCC 29212); test: Antibacterial activity, agar disc diffusion; type: cell-based; conditions: 10 μg / disc, positive control
Method: as §1, §2

[4] = test system: Escherichia coli (ATCC 8739); test: Antibacterial activity, agar disc diffusion; type: cell-based; conditions: 10 μg / disc, positive control
Method: as §1, §2

[5] = test system: Staphylococcus aureus (ATCC 6538); test: Antibacterial activity, agar disc diffusion; type: cell-based; conditions: 10 μg / disc, positive control
Method: as §1, §2

Molecule: C[C@H]1O[C@H](O[C@H]2[C@H](O)[C@@H](O)[C@@H](O[C@H]3[C@H](O)[C@@H](O)C(O)O[C@@H]3CO)O[C@@H]2CO)[C@H](O)[C@@H](O)[C@@H]1N[C@H]1C=C(CO)[C@@H](O)[C@H](O)[C@H]1O (stereo partly drawn) [Acarbose, acarbose]
- inhibition at 2.85 µg/mL (pancreatic α-amylase; concentration 2.85 μg/mL): 29.8 ± 0.07%
- inhibition at 5.71 µg/mL (pancreatic α-amylase; concentration 5.71 μg/mL): 51.52 ± 0.02%
- inhibition at 11.42 µg/mL (pancreatic α-amylase; concentration 11.42 μg/mL): 86.62 ± 0.04%

Molecule: Cc1cc(C(C)(C)C)c(O)c(C(C)(C)C)c1 [BHT, butylated hydroxytoluene]
- DPPH IC50 [1]: 13.00±0.57^a μg/mL
- Reducing power EC50 [2]: 43.35±0.95^a μg/mL

Molecule: penicillin
- Inhibition zone in diameter (Bacillus thuringiensis): 18.0±0.4^d mm
- Inhibition zone in diameter [3]: 16.0±0.2^c mm
- Inhibition zone in diameter [4]: 16.3±0.1^d mm
- Inhibition zone in diameter [5]: 14.1±0.5^c mm
